Data taken from ChEMBL document CHEMBL1201862, “PubChem BioAssay data set” (2004).
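Each compound was tested at five concentrations against cells in 96-well plates for 48 hours. The concentration for 50% growth inhibition is given as GI50.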 The source made the active and inactive calls. Cut-off read from the data, not from the text of the source: active = GI50 up to about 1.1 µM and inactive = higher.

Tests used:
Experiment in all cases: DTP human tumour cell line panel, 48 h
CCRF-CEM = test system: CCRF-CEM
HCT-15 = test system: HCT-15
DU-145 = test system: DU-145
SR = test system: SR
MCF7 = test system: MCF7
Hs-578T = test system: Hs-578T
RXF 393 = test system: RXF 393
UACC-257 = test system: UACC-257
HCT-116 = test system: HCT-116
TK-10 = test system: TK-10
RPMI-8226 = test system: RPMI-8226
MOLT-4 = test system: MOLT-4
HT-29 = test system: HT-29
MDA-N = test system: MDA-N
MDA-MB-231 = test system: MDA-MB-231
ACHN = test system: ACHN
786-0 = test system: 786-0
IGROV-1 = test system: IGROV-1
HCC 2998 = test system: HCC 2998
NCI-H226 = test system: NCI-H226

SMILES	GI50 (CCRF-CEM)	GI50 (HCT-15) [µM]	GI50 (DU-145)	GI50 (SR)	GI50 (MCF7)	GI50 (Hs-578T)	GI50 (RXF 393)	GI50 (UACC-257)	GI50 (HCT-116)	GI50 (TK-10)	GI50 (RPMI-8226)	GI50 (MOLT-4)	GI50 (HT-29)	GI50 (MDA-N)	GI50 (MDA-MB-231)	GI50 (ACHN)	GI50 (786-0)	GI50 (IGROV-1)	GI50 (HCC 2998)	GI50 (NCI-H226)
CCOc1cc(-c2nc3ccccn3c2/N=C/c2cc([N+](=O)[O-])cc([N+](=O)[O-])c2O)ccc1O	45 µM (inactive)	> 100	> 100 µM (inactive)	> 100 µM (inactive)	> 100 µM (inactive)	> 100 µM (inactive)	> 100 µM (inactive)	> 100 µM (inactive)	> 100 µM (inactive)	> 100 µM (inactive)	> 100 µM (inactive)	> 100 µM (inactive)	> 100 µM (inactive)	> 100 µM (inactive)	> 100 µM (inactive)	> 100 µM (inactive)	> 100 µM (inactive)	> 100 µM (inactive)	–	–
O=C1CC2(CCCc3sccc32)C(=O)N1 (configuration not stated)	> 100 µM (inactive)	> 100	> 100 µM (inactive)	–	> 100 µM (inactive)	> 100 µM (inactive)	> 100 µM (inactive)	> 100 µM (inactive)	> 100 µM (inactive)	> 100 µM (inactive)	> 100 µM (inactive)	> 100 µM (inactive)	> 100 µM (inactive)	> 100 µM (inactive)	> 100 µM (inactive)	> 100 µM (inactive)	> 100 µM (inactive)	> 100 µM (inactive)	> 100 µM (inactive)	> 100 µM (inactive)
COC(=O)/C=C1\C(CO[Si](C)(C)C(C)(C)C)OC(n2cc(C)c(=O)n(C)c2=O)C1O[Si](C)(C)C(C)(C)C (configuration not stated)	> 100 µM (inactive)	> 100	> 100 µM (inactive)	–	27 µM (inactive)	> 100 µM (inactive)	–	–	71.4 µM (inactive)	> 100 µM (inactive)	78 µM (inactive)	> 100 µM (inactive)	> 100 µM (inactive)	> 100 µM (inactive)	> 100 µM (inactive)	> 100 µM (inactive)	> 100 µM (inactive)	> 100 µM (inactive)	–	> 100 µM (inactive)
CC(=O)OC1C(COC(=O)c2ccccc2)OC(Nc2ncc(-c3ccc(Br)cc3)s2)C(OC(=O)c2ccccc2)C1OC(=O)c1ccccc1 (configuration not stated)	–	> 10	> 100 µM (inactive)	> 100 µM (inactive)	> 100 µM (inactive)	> 100 µM (inactive)	> 100 µM (inactive)	> 100 µM (inactive)	> 100 µM (inactive)	> 100 µM (inactive)	> 100 µM (inactive)	> 100 µM (inactive)	> 100 µM (inactive)	> 100 µM (inactive)	> 100 µM (inactive)	> 100 µM (inactive)	84.1 µM (inactive)	> 100 µM (inactive)	–	> 100 µM (inactive)
CCOC(=O)C1(C/C=C/CBr)CCc2ccccc2C1=O (configuration not stated)	5.25 µM (inactive)	19.7	14 µM (inactive)	–	7.89 µM (inactive)	30.8 µM (inactive)	6.03 µM (inactive)	15.9 µM (inactive)	13.3 µM (inactive)	10.4 µM (inactive)	–	9.1 µM (inactive)	21.9 µM (inactive)	14.4 µM (inactive)	18.2 µM (inactive)	13.6 µM (inactive)	16.2 µM (inactive)	11.1 µM (inactive)	–	6.95 µM (inactive)
Cc1cccc2nc3cc(O)cc(O)c3c(O)c12	> 10 µM (inactive)	> 10	> 10 µM (inactive)	–	–	2.86 µM (inactive)	> 10 µM (inactive)	> 10 µM (inactive)	> 10 µM (inactive)	> 10 µM (inactive)	> 10 µM (inactive)	> 10 µM (inactive)	> 10 µM (inactive)	> 10 µM (inactive)	> 10 µM (inactive)	> 10 µM (inactive)	> 10 µM (inactive)	> 10 µM (inactive)	–	> 10 µM (inactive)
O=C(O)C1C2C=CC(O2)C1C(=O)NCc1ccccn1 (configuration not stated)	> 100 µM (inactive)	> 100	> 100 µM (inactive)	> 100 µM (inactive)	> 100 µM (inactive)	> 100 µM (inactive)	44.5 µM (inactive)	> 100 µM (inactive)	> 100 µM (inactive)	> 100 µM (inactive)	> 100 µM (inactive)	> 100 µM (inactive)	> 100 µM (inactive)	> 100 µM (inactive)	> 100 µM (inactive)	> 100 µM (inactive)	> 100 µM (inactive)	> 100 µM (inactive)	–	> 100 µM (inactive)
CCNc1nc(N)c(C(=O)c2ccc(Cl)cc2)s1	5.75 µM (inactive)	26.9	32.7 µM (inactive)	–	28.6 µM (inactive)	4.86 µM (inactive)	22 µM (inactive)	71 µM (inactive)	27.9 µM (inactive)	14.3 µM (inactive)	30.3 µM (inactive)	27.4 µM (inactive)	27 µM (inactive)	41.8 µM (inactive)	> 100 µM (inactive)	23.7 µM (inactive)	39.9 µM (inactive)	25.1 µM (inactive)	–	22.3 µM (inactive)
